Measured values from US8962530B2, “Inflammatory bowel disease therapies” (Regents of the University of Colorado, priority 2007, dated 2015).

What was measured:
TNBS-induced colitis [1] = test: Histological analysis of colon sections in TNBS-colitis model; type: in vivo; conditions: TNBS-colitis mice; 40 mg/kg i.p. on day minus 1, day 0, day 1; day three; compared to vehicle-control treated TNBS-colitis animals
Text: The effectiveness of compounds and methods of the present invention on intestinal barrier protection and treatment of inflammatory bowel disease (IBD) in TNBS (2,4,6-trinitrobenzene sulfonic acid)-induced colitis, an established animal model of inflammatory bowel disease, was examined. TNBS-induced colitis was induced in mice using a modification of techniques previously described. (See Morris et al (1989) Gastroenterology 96:795-803; Boirivant et al (1998) J Exp Med 188:1929-1939; Karhausen et al (2004) J Clin Invest 114:1098-1106.) Mice were shaved on the abdomen (causing total depletion of hair and microlesions) and were then sensitized to subsequent treatment by epicutaneous application of 1% TNBS (Sigma-Aldrich) in 100% ethanol on day minus 7. Seven days later, on day 0, animals were sedated with a 2.5% Tribromoethanol solution in phosphate-buffered saline (14 μl/g body weight), followed by intrarectal administration of a 2.5% TNBS solution in 50% ethanol (5 μl/g body weight). Administration of the 2.5% TNBS solution was carried out using an epidural catheter ([…] Plus Epidural Catheter, Arrow International), which was inserted approximately 6 cm ab ano followed by release of the TNBS solution. To ensure the continuance of the TNBS solution in the colon, mice were suspended in a vertical position for at least 5 minutes following administration. Vehicle control animals received a corresponding volume of 50% ethanol solution alone. Unless otherwise indicated, compounds of the invention were administered to animals intraperitoneally (i.p.) as a solution. Animals were dosed with compound (40 mg/kg/day or 20 mg/kg/day) on day minus 1, day 0, and day 1, or exclusively on day 0 and day 1, by i.p. injection. On day 0, TNBS treatment was performed on animals 4 hours after injection of compound. The effect of methods and compounds of the present invention on structural changes of the colon associated with inflammatory bowel disease was studied using an established animal model of inflammatory bowel disease (described above in Example 1). […]

TNBS-induced colitis [2] = test: Colon length shortening in TNBS-colitis model; type: in vivo; conditions: TNBS-colitis mice, vehicle-treated greater than 17%
Text: The effectiveness of compounds and methods of the present invention on intestinal barrier protection and treatment of inflammatory bowel disease (IBD) in TNBS (2,4,6-trinitrobenzene sulfonic acid)-induced colitis, an established animal model of inflammatory bowel disease, was examined. TNBS-induced colitis was induced in mice using a modification of techniques previously described. (See Morris et al (1989) Gastroenterology 96:795-803; Boirivant et al (1998) J Exp Med 188:1929-1939; Karhausen et al (2004) J Clin Invest 114:1098-1106.) Mice were shaved on the abdomen (causing total depletion of hair and microlesions) and were then sensitized to subsequent treatment by epicutaneous application of 1% TNBS (Sigma-Aldrich) in 100% ethanol on day minus 7. Seven days later, on day 0, animals were sedated with a 2.5% Tribromoethanol solution in phosphate-buffered saline (14 μl/g body weight), followed by intrarectal administration of a 2.5% TNBS solution in 50% ethanol (5 μl/g body weight). Administration of the 2.5% TNBS solution was carried out using an epidural catheter ([…] Plus Epidural Catheter, Arrow International), which was inserted approximately 6 cm ab ano followed by release of the TNBS solution. […] Colon length was determined by measurement of the distance from the most distal aspect of the cecum to the most terminal aspect of the rectum on day 3 post-induction of TNBS-colitis.

Question: What does the source list for `O=C(O)CNC(=O)c1ncc2cc(Sc3ccccc3)ccc2c1O` [Compound A, [(4-Hydroxy-7-phenylsulfanyl-isoquinoline-3-carbonyl)-amino]-acetic acid]?
Answer: inflammatory infiltrate in colon sections (TNBS-induced colitis [1]): reduction in inflammatory infiltrate; tissue architecture in colon sections (TNBS-induced colitis [1]): overall general preservation of tissue architecture; villous blunting in colon sections (TNBS-induced colitis [1]): reduction in villous blunting; average decrease in colon length at day 3 (TNBS-induced colitis [2]; 20 mg/kg i.p. on day minus 1, day 0, day 1): approximately 12%; average decrease in colon length at day 3 (TNBS-induced colitis [2]; 40 mg/kg i.p. on day minus 1, day 0, day 1): ~8%
